From patent publication US9556190B2, “Piperidinyloxy lactone orexin receptor antagonists” (MERCK SHARP & DOHME CORP., priority 2013, dated 2017)

Legend:
human orexin-2 receptor = human orexin-2 receptor (Homo sapiens (Human), UniProt O43614); assay: FLIPR Ca2+ Flux Assay, CHO cells expressing orexin-2 receptor; format: cell-based; conditions: 70 pM Ala-6,12 orexin-A agonist, read-out: hOX2R FLIPR IC50
Experimental: The utility of the compounds in accordance with the present invention as orexin receptor OX1R and/or OX2R antagonists may be readily determined without undue experimentation by methodology well known in the art, including the “FLIPR Ca^2+ Flux Assay” (Okumura et al., Biochem. Biophys. Res. Comm. 280:976-981, 2001). In a typical experiment the OX1 and OX2 receptor antagonistic activity of the compounds of the present invention was determined in accordance with the following experimental method. For intracellular calcium measurements, Chinese hamster ovary (CHO) cells expressing the rat orexin-1 receptor or the human orexin-2 receptor, are grown in Iscove's modified DMEM containing 2 mM L-glutamine, […], 1% hypoxanthine-thymidine supplement, 100 U/ml penicillin, 100 μg/ml streptomycin and 10% heat-inactivated fetal calf serum (FCS). The cells are seeded at 20,000 cells/well into Becton-Dickinson black 384-well clear bottom sterile plates coated with poly-D-lysine. All reagents were from GIBCO-Invitrogen Corp. The seeded plates are incubated overnight at 37° C. and 5% CO2. Ala-6,12 human orexin-A as the agonist is prepared as a 1 mM stock solution in 1% bovine serum albumin (BSA) and diluted in assay buffer (HBSS containing 20 mM HEPES, 0.1% BSA and 2.5 mM probenecid, pH7.4) for use in the assay at a final concentration of 70 pM. Test compounds are prepared as 10 mM stock solution in DMSO, then diluted in 384-well plates, first in DMSO, then assay buffer. On the day of the assay, cells are washed 3 times with 100 μl assay buffer and then incubated for 60 min (37° C., 5% CO2) in 60 μl assay buffer containing 1 μM Fluo-4AM ester, 0.02% pluronic acid, and 1% BSA. The dye loading solution is then aspirated and cells are washed 3 times with 100 μl assay buffer. 30 μl of that same buffer is left in each well. Within the Fluorescent Imaging Plate Reader (FLIPR, Molecular Devices), test compounds are added to the plate in a volume of 25 μl, incubated for 5 min and finally 25 μl of agonist is added. Fluorescence is measured for each well at 1 second intervals for 5 minutes and the height of each fluorescence peak is compared to the height of the fluorescence peak induced by 70 pM Ala-6,12 orexin-A with buffer in place of antagonist. For each antagonist, IC50 value (the concentration of compound needed to inhibit 50% of the agonist response) is determined. Alternatively, compound potency can be assessed by a radioligand binding assay (described in Bergman et. al. Bioorg. Med. Chem. Lett. 2008, 18, 1425-1430) in which the inhibition constant (Ki) is determined in membranes prepared from CHO cells expressing either the OX1 or OX2 receptor. The intrinsic orexin receptor antagonist activity of a compound which may be used in the present invention may be determined by these assays.

hOX1R = hOX1R (Homo sapiens, UniProt O43613); assay: FLIPR Ca2+ Flux Assay, CHO cells expressing orexin-1 receptor; format: cell-based; conditions: 70 pM Ala-6,12 orexin-A agonist

Sequence of human orexin-2 receptor (O43614 whole entry): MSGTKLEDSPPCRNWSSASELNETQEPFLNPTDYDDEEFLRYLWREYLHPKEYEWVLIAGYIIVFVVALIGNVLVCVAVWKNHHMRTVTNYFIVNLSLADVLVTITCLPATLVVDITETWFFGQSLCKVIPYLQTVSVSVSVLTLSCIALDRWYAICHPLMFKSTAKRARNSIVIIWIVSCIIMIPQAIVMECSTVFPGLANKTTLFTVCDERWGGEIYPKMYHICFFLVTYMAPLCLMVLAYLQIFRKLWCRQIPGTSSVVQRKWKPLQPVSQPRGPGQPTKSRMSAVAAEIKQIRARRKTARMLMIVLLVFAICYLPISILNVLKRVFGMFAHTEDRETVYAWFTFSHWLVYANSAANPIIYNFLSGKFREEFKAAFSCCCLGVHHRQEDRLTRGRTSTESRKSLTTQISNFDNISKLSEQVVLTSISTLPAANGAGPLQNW

Structure (SMILES) | IC50 (human orexin-2 receptor) | IC50 (hOX1R)
C[C@@H]1CC[C@@H](Nc2nccc3c2C(=O)OC3(C)C)CN1C(=O)c1ccsc1-n1nccn1 [Example 43, 1,1-dimethyl-4-{[(3R,6R)-6-methyl-1-{[2-(2H-1,2,3-triazol-2-yl)thiophen-3-yl]-carbonyl}piperidin-3-yl]amino}-furo[3,4-c]pyridin-3(1H)-one] | 19 nM | 10000 nM
C[C@@H]1CC[C@@H](Nc2nccc3c2C(=O)OC3(C)C)CN1C(=O)c1ccsc1-c1ncccn1 [Example 44, 1,1-Dimethyl-4-({(3R,6R)-6-methyl-1-[(2-pyrimidin-2-ylthiophen-3-yl)carbonyl]piperidin-3-yl}amino)furo[3,4-c]pyridin-3(1H)-one] | 28 nM | 1000 nM
C[C@@H]1CC[C@@H](N(C)c2nccc3c2C(=O)OC3(C)C)CN1C(=O)c1ccccc1-n1ncnn1 [Example 45, 1,1-Dimethyl-4-{methyl[(3R,6R)-6-methyl-1-{[2-(2H-tetrazol-2-yl)phenyl]carbonyl}piperidin-3-yl]amino}furo[3,4-c]pyridin-3(1H)-one] | 127 nM | 9330 nM
C[C@@H]1OC(=O)c2c1ccnc2N[C@@H]1CC[C@@H](C)N(C(=O)c2ccccc2-n2nccn2)C1 [Example 46, (1S)-1-methyl-4-{[(3R,6R)-6-methyl-1-{[2-(2H-1,2,3-triazol-2-yl)phenyl]carbonyl}piperidin-3-yl]amino}furo[3,4-c]pyridin-3(1H)-one] | 28 nM | ≥ 10000 nM
C[C@@H]1CC[C@@H](Nc2nccc3c2C(=O)O[C@@H]3C)CN1C(=O)c1ccccc1-n1nccn1 [Example 47, (1R)-1-methyl-4-{[(3R,6R)-6-methyl-1-{[2-(2H-1,2,3-triazol-2-yl)phenyl]carbonyl}piperidin-3-yl]amino}furo[3,4-c]pyridin-3(1H)-one] | 35 nM | 7260 nM
